This is an account of results in PMC11345829, “Discovery of Potent Isoquinolinequinone N-Oxides to Overcome Cancer Multidrug Resistance” (Journal of Medicinal Chemistry, 2024).

The test system of experiment [1] is A549. Description: SRB cell growth inhibition assay. It is filed as cell-based. Conditions: Homo sapiens, 48 h, NSCLC, read-out: GI50 ± SEM A549. On the procedure:
(§1) Two pairs of drug-sensitive and multidrug-resistant (MDR) cell lines from human nonsmall cell lung cancer (NSCLC), NCI-H460 and NCI-H460/R, and colorectal cancer, DLD1 and DLD1-TxR, kindly provided by Dr M. Pešić (Belgrade, Serbia), were used to evaluate the growth inhibition potential of the compounds 1, 2, 3, 4, 5, 20, 23, 24, an 25.[76],[77] Additionally, growth inhibition assays were performed with compound 25 on two other NSCLC cell lines, A549 and NCI-H322, obtained from the American Type Culture Collection (ATCC) and the European Collection of Authenticated Cell Cultures, respectively. The A549 cell line was maintained in Dulbecco’s Modified Eagle Medium (DMEM) supplemented with 4.5 g/L Glucose with UltraGlutamine with sodium pyruvate (Lonza, Basel Stücki, Switzerland), enriched with 10% fetal bovine serum (FBS; Biowest, Nuaillé, France). […]
(§2) Cells were seeded at a previously determined optimal cell concentration (5.0 × 10^4 cells/mL for NSCLC cells and the nontumorigenic MRC-5 cell line and 1.0 × 10^5 cells/mL for colorectal cancer cells) and incubated at 37 °C for 24 h. […] Absorbance was measured at 510 nm in a multiplate reader (Synergy Mx, Biotek Instruments Inc., Winooski, Vermont, USA) using the Gen5 software (Biotek Instruments Inc.).

Experiment [2] has as its system NCI-H322. As to the kind of experiment: SRB cell growth inhibition assay. The experiment is classed as cell-based. To be noted: Homo sapiens, 48 h, NSCLC, read-out: GI50 ± SEM NCI-H322. On the procedure: as §1, §2
Experiment [3] relates to NCI-H460 cells. As to the kind of experiment: Alkaline Comet assay (DNA damage). It is filed as cell-based, human. Conditions: 48 h; 2 × GI50; preliminary, data not shown. On the procedure: Hydrogen peroxide (Sigma-Aldrich) was used as a positive control (50 μM). Harvested cells were resuspended in 0.5% low melting point agarose (Thermo Fisher Scientific) and poured onto slides precoated with 1% normal melting point agarose (Sigma-Aldrich). Cells were then lysed with ice-cold lysis buffer [100 mM Na2EDTA (Sigma-Aldrich), […] (Sigma-Aldrich), 10 mM Tris-Base (Sigma-Aldrich), pH 10.0, 1% and Triton X-100 (Sigma-Aldrich)) for 2 h in the dark at 4 °C. Then, after two washes with distilled water, slides were placed on an electrophoresis tank filled with electrophoresis buffer [300 mM NaOH (Sigma-Aldrich), 1 mM Na2EDTA; pH 13.0] and incubated for 40 min to allow DNA to unwind. Electrophoresis was carried out for 20 min at 32 V. Then slides were immersed twice in pure ethanol and allowed to dry at RT. Slides were stained with SyberGold staining solution (Invitrogen) in Tris-EDTA buffer [10 mM Tris-HCl (Sigma-Aldrich) and 1 mM EDTA (Sigma-Aldrich); pH 7.5] for 30 min with agitation and protected from light. In the end, slides washed and dried were visualized on a Zeiss Axio Imager Z1 microscope, equipped with the Axiovision 4.9 software.

Experiment [4] deals with MALME-3M. Description: NCI60 five-dose GI50. To be noted: Homo sapiens. The experiment is classed as cell-based. The procedure, abridged: (§3)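 Plated cells grown 24 h, then compound added at 10 nM, 100 nM, 1 μM, 10 μM and 100 μM for 48 h. Cells fixed, stained with sulforhodamine B, absorbance taken at 515 nm. Percentage growth from Tz, C and Ti readings gave the GI50.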
Experiment [5] deals with OVCAR-4. As to the kind of experiment: NCI60 five-dose GI50. The experiment is classed as cell-based. To be noted: Homo sapiens. The essentials:
as §3

The term GI50 denotes the concentration that inhibits growth by half. Turning to `COC(=O)c1c2c(c[n+]([O-])c1C)C(=O)C=C(NCc1ccccc1)C2=O` [Compound 25], the GI50 in experiment [1] worked out at 220 ± 20 nM; in experiment [2], 450 ± 60 nM; in experiment [4] it was 48 nM; in experiment [5], 69 nM. The DNA damage entry in experiment [3] was “did not increase DNA damage”.
